Measurements as given in ChEMBL document CHEMBL1145948 (J Med Chem, 2003).
Calls of active or inactive are those of the source. The rule behind the calls is not given here.

How the values were obtained:
Histamine H1 receptor [1] = biological target: T1, Histamine H1 receptor (Homo sapiens, UniProt P35367)
Histamine H1 receptor [2] = biological target: T1, Histamine H1 receptor; remark: listed apart in the source
Histamine H1 receptor [3] = biological target: T1, Histamine H1 receptor; assay: Intrinsic activity; Tested up to 100 uM: no effects up to 10 uM
Histamine H1 receptor [4] = biological target: T1, Histamine H1 receptor; assay: Intrinsic activity; Tested up to 10 uM: no effects up to 1 uM
Histamine H1 receptor [5] = biological target: T1, Histamine H1 receptor; assay: Intrinsic activity; Tested up to 10 uM: no effects up to 1 uM
Histamine H1 receptor [6] = biological target: T1, Histamine H1 receptor; assay: Intrinsic activity was determined; Tested up to 100 uM: no effects up to 10 uM

T1 sequence (P35367 whole entry): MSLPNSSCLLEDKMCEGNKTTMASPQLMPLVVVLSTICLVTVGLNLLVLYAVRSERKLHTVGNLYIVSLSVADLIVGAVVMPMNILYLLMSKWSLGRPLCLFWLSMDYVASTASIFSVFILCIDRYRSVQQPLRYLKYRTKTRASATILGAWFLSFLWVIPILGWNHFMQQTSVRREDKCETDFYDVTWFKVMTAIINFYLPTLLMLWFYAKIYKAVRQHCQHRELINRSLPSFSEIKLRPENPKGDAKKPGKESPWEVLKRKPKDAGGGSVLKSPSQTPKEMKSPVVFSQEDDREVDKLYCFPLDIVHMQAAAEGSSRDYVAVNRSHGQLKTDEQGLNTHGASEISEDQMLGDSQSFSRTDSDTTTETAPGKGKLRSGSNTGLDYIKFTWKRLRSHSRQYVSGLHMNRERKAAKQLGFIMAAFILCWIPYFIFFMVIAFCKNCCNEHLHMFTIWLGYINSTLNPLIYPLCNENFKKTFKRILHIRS

Structure (SMILES)	IC50 (Histamine H1 receptor [1]) [nM]	Alpha (Histamine H1 receptor [2])	other results
NCCCCCCCCCCc1c[nH]cn1	501	-0.54	–
NCCc1c[nH]c(CCCC(c2ccccc2)c2ccccc2)n1	–	0.02	–
c1ccc(C(CCc2nc(CCN3CCCC3)c[nH]2)c2ccccc2)cc1	–	–	Alpha (Histamine H1 receptor [3]): inactive
NCCc1c[nH]c(CCC(c2ccccc2)c2ccc(Br)cc2)n1 (stereo not drawn)	–	–	Alpha (Histamine H1 receptor [4]): inactive
NCCCCCCCCCCCCCc1c[nH]cn1	–	-0.84	–
NCCc1cnc(CCC(c2ccccc2)c2ccccc2)[nH]1	794	–	–
NCCCCCCCCCCCCCCc1cnc[nH]1	2000	–	–
NCCc1c[nH]c(-c2cccc(Cl)c2)n1	–	1.28	EC50 (Histamine H1 receptor [1]): 2000 nM
c1nc(CCCCCCCCN2CCCC2)c[nH]1	–	-0.99	–
NCCc1cnc(-c2cccc(C(F)(F)F)c2)[nH]1	–	–	EC50 (Histamine H1 receptor [1]): 1000 nM
NCCCCCCCCCCc1cccnc1	2510	-0.76	–
NCCCCCCCCCCCCc1ccccn1	–	–	Alpha (Histamine H1 receptor [5]): inactive
NCCCCCCCCc1c[nH]cn1	–	-0.54	–
NCCc1c[nH]c(CCCCC(c2ccccc2)c2ccccc2)n1	–	-0.09	–
NCCc1c[nH]c(CC(c2ccccc2)c2ccccc2)n1	–	–	Alpha (Histamine H1 receptor [3]): inactive
NCCCCCCCCCCCc1c[nH]cn1	–	-0.61	–
NCCCCCCCCCCc1ccncc1	2510	-1	–
NCCCCCCCCCCCc1cnc[nH]1	251	–	–
NCCCCCCCCCCCCc1c[nH]cn1	1000	-0.62	–
c1ncc(CCCCCCCCN2CCCC2)[nH]1	631	–	–

Structure (SMILES)	IC50 (Histamine H1 receptor [1]) [nM]	Alpha (Histamine H1 receptor [2])	other results
NCCCCCCCCCCCCc1ccncc1	398	-0.67	–
NCCc1c[nH]c(-c2cccc(C(F)(F)F)c2)n1	–	0.91	–
Cc1ccc(C(CCc2nc(CCN)c[nH]2)c2ccccc2)cc1 (stereo not drawn)	–	–	Alpha (Histamine H1 receptor [4]): inactive
c1nc(CCCCCCCCCCCCN2CCCC2)c[nH]1	3980	-0.46	–
NCCc1ccccn1	1260	1.11	–
NCCc1c[nH]cn1	–	1	–
NCCCCCCCCCc1ccccn1	7940	-0.92	–
NCCCCCCCCCCCCc1cccnc1	1260	-0.78	–
NCCCCCCCCCc1c[nH]cn1	2000	-0.72	–
NCCc1c[nH]c(-c2ccc(Cl)c(Cl)c2)n1	–	0.5	EC50 (Histamine H1 receptor [1]): 50100 nM
NCCc1c[nH]c(CCC(c2ccccc2)c2ccccc2)n1	–	0.69	–
c1nc(CCCCCCCCCCN2CCCC2)c[nH]1	398	-0.61	–
CN(C)CCN(Cc1ccccc1)c1ccccn1 [TRIPELENNAMINE]	39.8	-0.84	–
NCCc1c[nH]c(CCC(c2ccccc2)C2CCCCC2)n1 (stereo not drawn)	–	–	Alpha (Histamine H1 receptor [4]): inactive
NCCCCCCCCCCCCCc1cnc[nH]1	1260	–	–
NCCCCCCCCCCc1ccccn1	–	–	Alpha (Histamine H1 receptor [5]): inactive
NCCc1cscn1	–	–	Alpha (Histamine H1 receptor [6]): inactive
NCCCCCCCCCCCCCCc1c[nH]cn1	–	-0.9	–
NCCCCCCCCc1cnc[nH]1	3160	–	–
